Results: ChEMBL document CHEMBL1201862, “PubChem BioAssay data set” (2004)
Active and inactive are the calls of the source.

How the values were obtained:
[1] = target: T1, Acyl-homoserine lactone acylase PvdQ (Pseudomonas aeruginosa (strain LESB58), UniProt Q9I194); test: P. aeruginosa PvdQ acylase inhibitors, dose response, biochemical, fluorescence, plate reader and imaging, cherry-picks (AID 493231)
T1 sequence (Q9I194 whole entry): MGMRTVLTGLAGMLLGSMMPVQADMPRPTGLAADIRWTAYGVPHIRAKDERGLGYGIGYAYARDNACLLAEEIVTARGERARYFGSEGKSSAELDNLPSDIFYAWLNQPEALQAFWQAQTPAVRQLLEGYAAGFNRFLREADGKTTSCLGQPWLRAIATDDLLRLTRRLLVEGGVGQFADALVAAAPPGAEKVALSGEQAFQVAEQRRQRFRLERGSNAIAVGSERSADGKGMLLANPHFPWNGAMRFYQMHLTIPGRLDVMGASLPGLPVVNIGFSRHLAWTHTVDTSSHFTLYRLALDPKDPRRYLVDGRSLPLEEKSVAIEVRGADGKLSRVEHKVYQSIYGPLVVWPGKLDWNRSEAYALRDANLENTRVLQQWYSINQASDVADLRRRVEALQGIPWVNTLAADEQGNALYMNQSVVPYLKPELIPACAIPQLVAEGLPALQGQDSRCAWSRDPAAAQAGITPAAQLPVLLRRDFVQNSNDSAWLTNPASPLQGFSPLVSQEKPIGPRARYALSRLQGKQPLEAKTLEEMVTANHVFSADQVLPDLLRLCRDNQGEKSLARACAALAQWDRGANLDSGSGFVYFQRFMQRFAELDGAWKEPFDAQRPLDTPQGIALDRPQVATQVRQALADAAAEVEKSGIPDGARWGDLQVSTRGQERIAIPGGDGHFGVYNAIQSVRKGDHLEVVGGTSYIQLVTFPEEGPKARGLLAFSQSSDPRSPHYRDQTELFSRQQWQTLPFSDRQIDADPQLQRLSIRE

[2] = HIV-1 Env-mediated cell fusion inhibitors, dose response, CCR5-tropic Env (AID 2279); type: functional
Genome polyprotein = Genome polyprotein (dengue virus type 2, UniProt P29990); test: Dengue-2 NS5 methyltransferase inhibitors, primary screen, biochemical, confirmation dose response (AID 588689); type: functional
[3] = A cytotoxicity screen of small molecule inhibitors of the PhoP region in Salmonella typhi identified in the primary screen. [Related pubchem assays: 1850, 1864, 1985 ]; type: functional
Estrogen receptor = target: T2, Estrogen receptor (Homo sapiens, UniProt P03372);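 note: potency for inhibiting coactivator peptide recruitment to the receptor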
T2 sequence (P03372 whole entry): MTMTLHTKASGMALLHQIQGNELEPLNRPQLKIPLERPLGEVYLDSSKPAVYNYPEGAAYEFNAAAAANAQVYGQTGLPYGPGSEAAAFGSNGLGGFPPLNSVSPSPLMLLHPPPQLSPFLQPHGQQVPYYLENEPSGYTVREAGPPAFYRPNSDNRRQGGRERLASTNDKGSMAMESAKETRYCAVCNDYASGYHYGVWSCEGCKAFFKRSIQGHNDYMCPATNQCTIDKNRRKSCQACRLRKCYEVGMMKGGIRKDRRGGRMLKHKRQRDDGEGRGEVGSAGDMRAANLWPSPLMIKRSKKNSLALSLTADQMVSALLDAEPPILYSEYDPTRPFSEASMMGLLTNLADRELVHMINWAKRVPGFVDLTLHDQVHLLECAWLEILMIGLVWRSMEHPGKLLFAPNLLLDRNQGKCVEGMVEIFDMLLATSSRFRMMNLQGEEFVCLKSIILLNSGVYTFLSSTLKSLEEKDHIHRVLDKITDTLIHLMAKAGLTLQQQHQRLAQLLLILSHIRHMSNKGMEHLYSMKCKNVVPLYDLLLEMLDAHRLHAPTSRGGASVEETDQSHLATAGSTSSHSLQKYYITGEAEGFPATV

Aminopeptidase N = target: T3, Aminopeptidase N (Plasmodium falciparum FcB1/Columbia, UniProt O96935); test: P. falciparum M1AAP inhibitors, biochemical, fluorogenic H-Leu-NHMec substrate, 1536-well (AID 1445); parameters: species or system Plasmodium falciparum 3D7, 3D7
T3 sequence (O96935 whole entry): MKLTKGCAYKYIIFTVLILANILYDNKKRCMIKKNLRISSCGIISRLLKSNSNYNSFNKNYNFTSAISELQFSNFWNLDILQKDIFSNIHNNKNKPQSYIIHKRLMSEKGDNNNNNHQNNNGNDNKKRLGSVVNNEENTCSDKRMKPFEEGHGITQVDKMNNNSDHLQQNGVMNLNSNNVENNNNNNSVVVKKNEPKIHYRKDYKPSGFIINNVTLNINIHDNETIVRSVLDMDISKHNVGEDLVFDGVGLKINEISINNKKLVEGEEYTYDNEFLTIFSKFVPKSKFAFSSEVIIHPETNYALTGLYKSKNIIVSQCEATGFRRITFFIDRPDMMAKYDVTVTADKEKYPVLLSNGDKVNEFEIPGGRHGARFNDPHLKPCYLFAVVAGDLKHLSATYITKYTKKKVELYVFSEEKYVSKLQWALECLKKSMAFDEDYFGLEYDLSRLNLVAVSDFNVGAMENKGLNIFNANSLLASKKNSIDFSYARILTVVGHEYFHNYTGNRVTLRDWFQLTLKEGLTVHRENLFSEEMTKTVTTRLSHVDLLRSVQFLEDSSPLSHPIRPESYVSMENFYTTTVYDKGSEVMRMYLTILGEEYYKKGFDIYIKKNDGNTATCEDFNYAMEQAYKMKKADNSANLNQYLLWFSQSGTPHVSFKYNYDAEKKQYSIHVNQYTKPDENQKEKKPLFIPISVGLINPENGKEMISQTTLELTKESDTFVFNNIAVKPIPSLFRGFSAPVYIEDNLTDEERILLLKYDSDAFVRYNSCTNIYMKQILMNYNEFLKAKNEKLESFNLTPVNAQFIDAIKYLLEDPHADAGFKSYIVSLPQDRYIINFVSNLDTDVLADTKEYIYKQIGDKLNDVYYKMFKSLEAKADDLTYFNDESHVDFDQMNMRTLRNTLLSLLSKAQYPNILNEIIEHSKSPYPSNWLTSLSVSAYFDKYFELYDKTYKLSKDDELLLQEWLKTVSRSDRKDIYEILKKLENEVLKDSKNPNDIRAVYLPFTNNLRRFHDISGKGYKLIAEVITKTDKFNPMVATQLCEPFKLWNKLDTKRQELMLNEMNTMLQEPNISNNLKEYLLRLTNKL

[4] = target: Induced myeloid leukemia cell differentiation protein Mcl-1 (Homo sapiens, UniProt Q07820); type: functional
[5] = target: T4, Calpain-2 catalytic subunit (Sus scrofa, UniProt P43367); test: pig calpain II inhibitor potency, dose response, biochemical, fluorogenic peptide substrate (AID 1420); type: functional
T4 sequence (P43367 whole entry): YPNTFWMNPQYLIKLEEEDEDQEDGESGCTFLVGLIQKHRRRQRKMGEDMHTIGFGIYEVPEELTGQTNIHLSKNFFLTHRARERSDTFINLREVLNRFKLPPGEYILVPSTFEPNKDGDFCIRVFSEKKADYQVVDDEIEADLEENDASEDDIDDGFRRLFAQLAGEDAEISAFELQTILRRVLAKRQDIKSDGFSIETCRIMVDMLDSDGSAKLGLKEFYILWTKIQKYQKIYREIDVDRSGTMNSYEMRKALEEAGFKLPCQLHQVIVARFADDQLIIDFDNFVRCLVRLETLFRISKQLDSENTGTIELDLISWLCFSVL

[6] = target: T5, Replicative DNA helicase DnaB (Mycobacterium tuberculosis, UniProt P9WMR3); test: DnaB intein splicing inhibitors, dose response, biochemical, cell-free fluorescence (AID 449749); type: functional
T5 sequence (P9WMR3 whole entry): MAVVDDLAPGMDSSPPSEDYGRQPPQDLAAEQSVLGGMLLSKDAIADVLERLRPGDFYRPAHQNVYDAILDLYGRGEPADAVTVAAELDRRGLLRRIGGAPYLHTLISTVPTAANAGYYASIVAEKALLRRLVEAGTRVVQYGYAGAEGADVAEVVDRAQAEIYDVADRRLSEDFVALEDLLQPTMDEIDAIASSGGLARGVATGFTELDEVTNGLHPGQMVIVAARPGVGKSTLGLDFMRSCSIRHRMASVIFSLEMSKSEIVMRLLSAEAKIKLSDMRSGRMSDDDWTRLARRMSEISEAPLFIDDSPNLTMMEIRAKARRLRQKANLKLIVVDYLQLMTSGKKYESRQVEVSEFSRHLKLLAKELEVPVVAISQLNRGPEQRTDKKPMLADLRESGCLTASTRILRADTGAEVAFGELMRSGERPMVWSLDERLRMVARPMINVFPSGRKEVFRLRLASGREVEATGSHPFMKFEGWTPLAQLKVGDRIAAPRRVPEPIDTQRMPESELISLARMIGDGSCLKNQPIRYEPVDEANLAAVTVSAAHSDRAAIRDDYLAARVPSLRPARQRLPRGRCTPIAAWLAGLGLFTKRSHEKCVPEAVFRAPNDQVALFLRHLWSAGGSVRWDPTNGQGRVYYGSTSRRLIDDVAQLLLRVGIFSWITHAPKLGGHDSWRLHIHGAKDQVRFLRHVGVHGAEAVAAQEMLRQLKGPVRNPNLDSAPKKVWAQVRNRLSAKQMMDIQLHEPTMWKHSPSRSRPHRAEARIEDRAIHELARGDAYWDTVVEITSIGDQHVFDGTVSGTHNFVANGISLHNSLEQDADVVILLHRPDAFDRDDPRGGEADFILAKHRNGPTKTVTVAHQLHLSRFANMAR

Protein RecA = target: T6, Protein RecA (Mycobacterium tuberculosis, UniProt P9WHJ3); test: Fluorescence Cell-Free Homogeneous Dose Retest to Identify Inhibitors of RecA-Intein Splicing Activity. [Related pubchem assays (depositor defined):AID2097, AID2223, AID489010, AID492950]; type: functional
T6 sequence (P9WHJ3 whole entry): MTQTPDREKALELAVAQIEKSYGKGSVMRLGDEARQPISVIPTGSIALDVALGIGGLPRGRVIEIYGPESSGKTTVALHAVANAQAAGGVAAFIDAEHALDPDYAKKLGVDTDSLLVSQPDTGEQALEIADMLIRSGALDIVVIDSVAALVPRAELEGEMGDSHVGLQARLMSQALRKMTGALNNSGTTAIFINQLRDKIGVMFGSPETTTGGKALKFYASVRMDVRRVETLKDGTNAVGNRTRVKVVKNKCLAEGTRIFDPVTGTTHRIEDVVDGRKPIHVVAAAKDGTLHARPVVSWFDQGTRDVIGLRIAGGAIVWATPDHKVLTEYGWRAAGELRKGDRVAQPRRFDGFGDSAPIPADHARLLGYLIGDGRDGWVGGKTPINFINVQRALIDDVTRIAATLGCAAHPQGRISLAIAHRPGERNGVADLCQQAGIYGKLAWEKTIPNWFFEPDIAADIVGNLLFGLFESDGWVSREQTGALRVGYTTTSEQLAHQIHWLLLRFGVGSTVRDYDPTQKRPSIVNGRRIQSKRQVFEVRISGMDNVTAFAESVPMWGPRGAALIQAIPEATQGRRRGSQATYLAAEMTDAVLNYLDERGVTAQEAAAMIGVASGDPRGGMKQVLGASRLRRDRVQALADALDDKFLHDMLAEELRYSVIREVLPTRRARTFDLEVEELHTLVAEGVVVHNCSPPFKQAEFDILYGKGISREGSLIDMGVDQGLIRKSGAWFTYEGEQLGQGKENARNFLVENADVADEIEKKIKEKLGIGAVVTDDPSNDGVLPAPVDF

[7] = target: T7, Rac GTPase-activating protein 1 (Homo sapiens, UniProt Q9H0H5); test: MgcRacGAP GTPase-activating activity inhibitors, confirmation, biochemical, ADP Hunter fluorescence, primary and confirmatory (AID 624330); type: functional
T7 sequence (Q9H0H5 whole entry): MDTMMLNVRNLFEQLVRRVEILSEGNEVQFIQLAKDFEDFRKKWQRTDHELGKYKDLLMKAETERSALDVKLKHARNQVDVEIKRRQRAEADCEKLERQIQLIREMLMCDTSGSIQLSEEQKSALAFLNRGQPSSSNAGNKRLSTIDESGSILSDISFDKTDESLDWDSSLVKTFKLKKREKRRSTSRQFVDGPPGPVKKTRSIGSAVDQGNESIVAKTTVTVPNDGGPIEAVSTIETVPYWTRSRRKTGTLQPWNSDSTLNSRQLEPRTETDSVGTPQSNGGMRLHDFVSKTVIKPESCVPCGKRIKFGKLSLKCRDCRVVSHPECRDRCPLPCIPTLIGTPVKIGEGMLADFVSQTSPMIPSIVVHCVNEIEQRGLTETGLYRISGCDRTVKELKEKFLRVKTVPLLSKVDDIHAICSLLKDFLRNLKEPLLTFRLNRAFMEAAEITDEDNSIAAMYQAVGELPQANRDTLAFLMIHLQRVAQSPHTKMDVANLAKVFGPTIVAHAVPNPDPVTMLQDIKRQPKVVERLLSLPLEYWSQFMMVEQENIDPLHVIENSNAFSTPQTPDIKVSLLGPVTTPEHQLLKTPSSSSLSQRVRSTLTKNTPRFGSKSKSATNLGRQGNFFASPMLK

Chain of Genome polyprotein (P29990 2492-3391 limits assumed): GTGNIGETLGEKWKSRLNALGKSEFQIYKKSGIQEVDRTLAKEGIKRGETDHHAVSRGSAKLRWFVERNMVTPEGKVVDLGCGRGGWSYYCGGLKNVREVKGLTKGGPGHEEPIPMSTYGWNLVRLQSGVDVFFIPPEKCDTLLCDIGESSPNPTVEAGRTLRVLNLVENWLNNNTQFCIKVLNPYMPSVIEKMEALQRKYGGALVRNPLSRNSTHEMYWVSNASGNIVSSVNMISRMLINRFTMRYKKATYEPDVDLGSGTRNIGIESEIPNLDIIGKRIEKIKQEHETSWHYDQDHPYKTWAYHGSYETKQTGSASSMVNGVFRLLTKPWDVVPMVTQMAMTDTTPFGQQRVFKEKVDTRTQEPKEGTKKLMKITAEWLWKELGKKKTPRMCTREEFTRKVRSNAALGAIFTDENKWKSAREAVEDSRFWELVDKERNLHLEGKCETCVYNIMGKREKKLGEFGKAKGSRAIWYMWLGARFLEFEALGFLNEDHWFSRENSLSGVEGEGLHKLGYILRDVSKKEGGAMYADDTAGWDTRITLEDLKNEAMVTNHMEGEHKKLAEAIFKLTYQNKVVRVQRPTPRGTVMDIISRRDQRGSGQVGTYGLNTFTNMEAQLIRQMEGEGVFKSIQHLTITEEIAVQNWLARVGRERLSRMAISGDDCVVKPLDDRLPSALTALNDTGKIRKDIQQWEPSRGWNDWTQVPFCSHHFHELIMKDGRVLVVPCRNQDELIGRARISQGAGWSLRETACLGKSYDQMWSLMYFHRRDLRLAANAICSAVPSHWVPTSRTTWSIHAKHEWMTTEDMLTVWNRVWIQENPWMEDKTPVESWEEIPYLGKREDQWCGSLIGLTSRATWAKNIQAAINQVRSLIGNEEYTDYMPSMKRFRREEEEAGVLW
Chain of Induced myeloid leukemia cell differentiation protein Mcl-1 (Q07820 whole entry): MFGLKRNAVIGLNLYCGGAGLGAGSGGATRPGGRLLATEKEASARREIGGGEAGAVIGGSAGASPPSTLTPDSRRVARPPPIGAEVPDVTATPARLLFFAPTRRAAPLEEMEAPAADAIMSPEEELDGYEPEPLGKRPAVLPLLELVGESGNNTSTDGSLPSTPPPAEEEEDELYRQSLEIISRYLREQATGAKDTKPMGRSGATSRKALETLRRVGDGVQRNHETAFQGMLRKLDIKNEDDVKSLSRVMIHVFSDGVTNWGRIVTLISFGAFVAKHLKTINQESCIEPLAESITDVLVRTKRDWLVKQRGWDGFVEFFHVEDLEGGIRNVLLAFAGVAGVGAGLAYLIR

O=C1C2C3C=CC(C4CC34)C2C(=O)N1Cc1ccco1 (stereo not drawn)
AC50 [1]: 12.4 µM (active)

O=C(CCN1C(=O)/C(=C\C=C\c2ccccc2)SC1=S)Nc1ccccc1C(=O)O
IC50 [2]: > 50 µM (active)
IC50 (Genome polyprotein): 64.3 µM (active)

O=C1C=C(c2cccc(Br)c2)C[C@@H](c2ccc(F)cc2)C1
AC50 [1]: 48.9 µM (active)

COc1ccc(N2CCN(C(CNC(=O)c3ccc4c(c3)OCO4)c3ccco3)CC2)cc1 (stereo not drawn)
EC50 [3]: > 50 µM (active)

CCC(C)n1nc(O)cc1N (stereo not drawn)
IC50 (Estrogen receptor): > 50 µM (not active)

COc1cc(/C=C2/SC(=S)NC2=O)ccc1OS(=O)(=O)c1ccc(C)cc1
IC50 (Aminopeptidase N): 51.8 µM (active)
IC50 [2]: 10.3 µM (active)
IC50 [4]: 3.44 µM (active)
IC50 [5]: 13.4 µM (not active)
AC50 [6]: 3.21 µM (active)
EC50 (Protein RecA): 11.9 µM (active)

Cc1ccc(NC(=O)CN(C)C2CCCCC2)cc1Br
EC50 [3]: > 50 µM (active)
IC50 [7]: 137 µM (active)

CCN(CC)c1ccc(CNc2nc3ccccc3n2C)cc1
EC50 [3]: > 50 µM (active)

N#Cc1cc(-c2ccccc2)cnc1Cl
AC50 [1]: 6.29 µM (active)

O=C(O)CCc1nc(-c2ccc(Cl)cc2)no1
AC50 [1]: 16.1 µM (active)

C=C(C)Cn1c(SCC#N)nc2ccccc2c1=O
EC50 [3]: > 50 µM (active)
